Tests used:
[1] = tested on: human peripheral blood neutrophils; experiment: Human peripheral blood neutrophil adhesion system (adhesion to immobilized HUVEC, PMA-stimulated); type: cell-based; conditions: concentration inhibiting by 50% the PMA-stimulated increase in number of adhered BCECF-AM labeled neutrophils on HUVEC immobilized plate
Method: Evaluation of Compounds in Human Peripheral Blood Neutrophil Adhesion System
<Preparation of Human Peripheral Blood Neutrophils>
To a plastic centrifugation tube containing 100 units of heparin sodium (Shimizu Pharmaceutical) was added 25 ml of fresh blood sampled from a healthy human. After adding and mixing therewith 8 ml of physiological saline (Otsuka Pharmaceutical) containing 6% Dextran (Nacalai), the mixture was allowed to stand room temperature for 45 minutes for sedimentation of the erythrocytes. The resultant supernatant was transferred to another plastic centrifugation tube and combined with an equivalent volume of phosphate-buffered saline (hereinafter abbreviated as PBS; Sigma), and then centrifuged at 1600 rpm for 7 minutes at room temperature. The obtained hematocyte fraction was suspended in 4 ml of PBS, and the suspension was superposed on 4 ml of Ficoll-Paque™ PLUS (Amersham Biosciences). The resultant bilayer liquid was centrifuged at 2000 rpm for 30 minutes at room temperature, after which the supernatant was removed and the precipitate was suspended in 10 ml of PBS and centrifuged at 1200 rpm for 7 minutes, and the supernatant was removed. The resulting precipitate was suspended in 0.5 ml of PBS again, and then 10 ml of distilled water (Otsuka Pharmaceutical) was added, 0.5 ml of an aqueous solution containing 3 M NaCl was immediately added to restore isotonicity, the mixture was centrifuged at 1200 rpm for 7 minutes, and the obtained precipitate was suspended in PBS containing 1 mg/ml bovine serum albumin (hereinafter abbreviated as BSA; Sigma) again and stored in ice until being used for the experiment.
<Fluorescent Labeling of Human Peripheral Blood Neutrophils>
The obtained neutrophils were suspended in PBS containing 1 mg/ml BSA at 2×10^7 cells/ml. BCECF-AM (Dojin) was added to a final concentration of 5 μM, and the mixture was incubated at 37° C. for 45 minutes. It was then rinsed twice with PBS containing 1 mg/ml BSA by centrifugation, suspended again in PBS containing 1 mg/ml BSA at 5×10^7 cells/ml, and stored in ice until use.
<Preparation of HUVEC Immobilized Plate>
Human umbilical vein endothelial cells (hereinafter abbreviated as HUVEC) were suspended in MCDB131 medium (Chlorella Industries) containing 10% fetal calf serum and 30 μg/ml endothelial cell growth supplement (Becton Dickinson Bioscience). The suspension was added at 7.5×10^3 cells/well to a 96-well plate (Iwaki) immobilized with type I collagen, and cultured for 3 days in a CO2 incubator (Hirasawa). Upon confirming confluency of the cells, the supernatant was discarded, the plate was rinsed twice with PBS, and then PBS containing 0.1% glutaraldehyde (Kanto Kagaku) was added at 100 μl/well and the HUVECs were immobilized for 5 minutes. The supernatant was discarded and the plate was washed twice with PBS, and then PBS was added at 100 μl/well and the mixture was stored at 4° C. until use.
To 6.5 ml of RPMI-1640 medium (Sigma) containing 1 mg/ml of BSA were added 0.5 ml of a suspension of BCECF-AM labeled neutrophils at 5×10^7/ml stored in ice, which was mixed, and the mixture was added at 80 μl/well to a HUVEC immobilized plate. […] The supernatant was removed from the plate, which was then washed several times with RPMI-1640 at 100 μl/well, and then PBS containing 0.1% NP-40 (Calbiochem) was added thereto at 100 μl/well and the fluorescent intensity was measured with an ARVO™SX 1420 multi label counter (Wallac) to determine the number of adhered cells. […]

[2] = tested on: colon-infiltrating neutrophils (myeloperoxidase enzyme activity); experiment: Oxazolone-induced colon neutrophil infiltration model; type: in vivo, Balb/c mice; conditions: Mus musculus, po, 30 mg/kg orally 30 minutes prior to intrarectal oxazolone, colon myeloperoxidase activity 4 hours after, vs oxazolone control group, read-out: Inhibitory rate (%)
Method: Evaluation of Compounds in Oxazolone-Induced Colon Neutrophil Infiltration Model
<Sensitization with Oxazolone>
Five- to six-week-old male Balb/c mice (Charles River Japan) were shaven at the abdomen to an approximately 2 cm square area. A 100% ethanol solution containing 3% 4-ethoxymethylene-2-phenyl-2-oxazolin-5-one (hereinafter referred to as “oxazolone”; Sigma) was applied at 150 μl onto the abdomen of each mouse.
<Preparation of Emulsion Containing Oxazolone>
Distilled water (Otsuka Pharmaceutical) was added in an equivalent volume to 100% peanut oil (Kanto Kagaku) containing 1% oxazolone, and the components were vigorously mixed with a glass syringe (Top Co.), to prepare an emulsion containing 0.5% oxazolone.
<Induction with Oxazolone>
The mice were fasted on the 3rd day after oxazolone sensitization, and were injected with 100 μl of the emulsion containing 0.5% oxazolone prepared in the way described above intrarectally at a site approximately 3 cm from the anus under ether anesthesia on the 4th day.
<Colon-Infiltrating Neutrophil Assay>
Each compound was suspended or dissolved in an aqueous solution containing 0.5% methyl cellulose (Wako), and orally administered at 30 mg/kg 30 minutes prior to the intrarectal injection of oxazolone emulsion. Four hours after the intrarectal injection of oxazolone, mice were sacrificed by cervical dislocation, and colons were extirpated, dissected in the longitudinal direction, washed with physiological saline, and transferred to ice-cooled plastic centrifugation tubes. After adding 1 ml of 50 mM potassium phosphate buffer (hereinafter abbreviated as KPB) (pH 6.0) to the tube, and the tissue were homogenized with PHYSCOTRON (Microtec Nition Co., Ltd.), 2 ml of 50 mM KPB (pH 6.0) was added and the mixture was centrifuged at 3000 rpm, 4° C. for 10 minutes and the supernatant was removed. To the resultant precipitate was added 1 ml of 50 mM KPB (pH 6.0) containing 0.5% hexadecyltrimethyl-ammonium bromide (Sigma), and freeze-thawed 3 to 5 times using liquid nitrogen and hot water, centrifuged at 3000 rpm, 4° C. for 10 minutes to yield a supernatant. The myeloperoxidase enzyme activity in the supernatant was assayed in the following manner. Specifically, to 10 μl of the obtained supernatant was added 200 μl of 50 mM KPB (pH6.0) containing 0.017% o-dianisidine (Sigma) and 0.0005% hydrogen peroxide (Wako), incubated at 37° C., and the change in absorbance at 450 nm was continuously measured for 1 minute using an EL340 Automated Microplate Reader (BIO-TEK) in kinetic mode. The units were the rate of change in absorbance per minute (mO.D./min.). With regard to the effect of each compound, the inhibitory rate (%) with respect to the oxazolone control group, i.e. the oxazolone-injected/compound-free group, was shown in the table 3.

[3] = tested on: Jurkat cells; experiment: Jurkat cell adhesion system (adhesion to immobilized human fibronectin, PMA-stimulated); type: cell-based; conditions: concentration inhibiting by 50% the PMA-stimulated increase in number of adhered Jurkat cells on human fibronectin
Method: Evaluation of Compounds in Jurkat Cell Adhesion System
<Immobilization of Human Fibronectin in 96-Well Plate>
Human fibronectin (Becton Dickinson Biosciences) was diluted with phosphate-buffered saline (hereinafter abbreviated as PBS; Sigma) to 0.1-0.01 μg/ml, and the diluted solution was added to a 96-well plate (Becton Dickinson) at 50μ/well, and allowed to stand overnight at 4° C. On the following day, the supernatant was removed from the plate, and then PBS containing 1% bovine serum albumin (hereinafter abbreviated as BSA; Sigma) was added thereto at 100 μl/well and incubation was performed at 37° C. for 2 hours in a CO2 incubator (Hirasawa).
The supernatant was removed from each plate and Jurkat cells suspended in RPMI-1640 (Sigma) containing 1 mg/ml BSA were added at 80 μl/well for 2.5×10^5 cells/well. The compound diluted to different concentrations with RPMI-1640 containing 1 mg/ml BSA was immediately added at 10 μl/well, and then 100 nM phorbol myristate acetate (hereinafter abbreviated as PMA; Sigma) in RPMI-1640 containing 1 mg/ml BSA was added at 10 μl/well and the plate was incubated in a CO2 incubator at 37° C. for 45-60 minutes. The supernatant was removed from the plate and each well was washed several times with 100 μl/well of RPMI-1640, after which 50 mM citrate buffer (pH 5.0) containing 3.75 mM p-nitrophenol-N-acetyl-β-D-glucosaminide (Sigma) and 0.25% Triton X-100 (Sigma) were added at 60 μl/well, and the mixture was placed in a CO2 incubator and incubated at 37° C. for 45 minutes. After incubation, 50 mM glycine buffer (pH 10.4) containing 5 mM EDTA was added at 90 μl/well, and the absorbance at 405 nm was measured with an EL340 Automated Microplate Reader (BIO-TEK) to determine the adhered cell count. The concentration of each compound which inhibited the increase in the number of adhered cells by the PMA-stimulation by 50% was recorded as the IC50 (μM).

[4] = tested on: DSS-induced colitis; experiment: DSS-induced colitis model; type: in vivo, Balb/c mice; conditions: 30 mg/kg orally once a day for 5-7 successive days; 1-3% DSS in water for 5-7 days
Source text: Evaluation of Compounds in DSS-Induced Colitis Model
A 1-3% solution of dextran sulfate sodium (hereinafter abbreviated as DSS; ICN) in purified water (Otsuka Pharmaceutical) was fed freely to 6- to 7-week-old male Balb/c mice (Charles River Japan) for 5-7 days to induce colitis. Disease Activity Index (hereinafter abbreviated as DAI) scored based on fecal hardness, blood content in feces and body weight change, the number of neutrophils infiltrating the colon and the length of the colon were used as indexes to evaluate compounds. Each compound was suspended or dissolved in an aqueous solution containing 0.5% methyl cellulose (Wako), and orally administered at 30 mg/kg once a day, for 5-7 successive days.

Compound	IC50 [1] [µM]	inhibition in vivo at 30 mg/kg [2] [%]	IC50 [3] [nM]	improvement in comparison with the DSS control group (DAI, number of neutrophils infiltrating the colon, length of the colon) [4]
CCCCN1CCN(c2ccc(N3CCC(OC)CC3)cc2C2=CCC(C(C)(C)C)CC2)CC1.Cl (racemic) [Example 7, 1-Butyl-4-[2-(4-t-butylcyclohex-1-enyl)-4-(4-methoxypiperidin-1-yl)phenyl]piperazine hydrochloride]	9.8	37	2500	
CCNC(=O)CN1CCN(c2ccccc2C2CCC(C(C)(C)C)CC2)CC1.Cl (centres unmarked) [Example 10, 2-{4-[2-(4-t-Butylcyclohexyl)phenyl]piperazin-1-yl}-N-ethylacetamide hydrochloride]			4700	
CCCCN1CCN(c2ccccc2C2CCC(C(C)(C)C)CC2)CC1.Cl (centres unmarked) [Example 15, 1-Butyl-4-[2-(4-t-butylcyclohexyl)phenyl]piperazine hydrochloride]			2300	particularly good improvement
CCCCN1CCN(c2ccccc2C2CCCCC2)CC1.Cl [Example 14, 1-Butyl-4-(2-cyclohexylphenyl)piperazine hydrochloride]	19.7	64	4900	
CCCCN1CCN(c2ccccc2C2CC(C)(C)CC(C)(C)C2)CC1.Cl [Example 8, 1-Butyl-4-[2-(3,3,5,5-tetramethylcyclohexyl)phenyl]piperazine hydrochloride]	22.5	22	2200	
CCCCN1CCN(c2ccc(N3CCOCC3)cc2C2=CCC(C(C)(C)C)CC2)CC1.Cl (racemic) [Example 18, 4-[3-(4-t-Butylcyclohex-1-enyl)-4-(4-butylpiperazine-1-yl)phenyl]morpholine hydrochloride]		50		particularly good improvement

Reference: US7410971B2, “1,2-di(cyclic)substituted benzene compounds” (Eisai R&D Management Co., Ltd., priority 2003, dated 2008)
